Results: patent US20020026053A1, “Novel 3-(substituted) -2- indolinones compounds and use thereof as inhibitors of protein kinase activity” (priority 1997, published 2002)

Target: T1, EGFR (Homo sapiens, UniProt P00533)
T1 construct: endogenous in cells; host or cells: A431 cells (lysate, captured with SUMO1 anti-EGFR antibody)
Assay: Biochemical EGFR Assay
Design: concentration or dose not given beside the values
Summary of the method: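 EGFR from A431 lysate was captured on anti-EGFR-coated wells and preincubated 30 min with compound (diluted 1:10 in TBS) at room temperature. After ATP/MnCl2 phosphorylation for 5 min, the reaction was stopped with EDTA. Phosphotyrosine was detected by ELISA (anti-phosphotyrosine, peroxidase conjugate, ABTS) at 410 nm.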

T1 sequence (P00533 25-1210): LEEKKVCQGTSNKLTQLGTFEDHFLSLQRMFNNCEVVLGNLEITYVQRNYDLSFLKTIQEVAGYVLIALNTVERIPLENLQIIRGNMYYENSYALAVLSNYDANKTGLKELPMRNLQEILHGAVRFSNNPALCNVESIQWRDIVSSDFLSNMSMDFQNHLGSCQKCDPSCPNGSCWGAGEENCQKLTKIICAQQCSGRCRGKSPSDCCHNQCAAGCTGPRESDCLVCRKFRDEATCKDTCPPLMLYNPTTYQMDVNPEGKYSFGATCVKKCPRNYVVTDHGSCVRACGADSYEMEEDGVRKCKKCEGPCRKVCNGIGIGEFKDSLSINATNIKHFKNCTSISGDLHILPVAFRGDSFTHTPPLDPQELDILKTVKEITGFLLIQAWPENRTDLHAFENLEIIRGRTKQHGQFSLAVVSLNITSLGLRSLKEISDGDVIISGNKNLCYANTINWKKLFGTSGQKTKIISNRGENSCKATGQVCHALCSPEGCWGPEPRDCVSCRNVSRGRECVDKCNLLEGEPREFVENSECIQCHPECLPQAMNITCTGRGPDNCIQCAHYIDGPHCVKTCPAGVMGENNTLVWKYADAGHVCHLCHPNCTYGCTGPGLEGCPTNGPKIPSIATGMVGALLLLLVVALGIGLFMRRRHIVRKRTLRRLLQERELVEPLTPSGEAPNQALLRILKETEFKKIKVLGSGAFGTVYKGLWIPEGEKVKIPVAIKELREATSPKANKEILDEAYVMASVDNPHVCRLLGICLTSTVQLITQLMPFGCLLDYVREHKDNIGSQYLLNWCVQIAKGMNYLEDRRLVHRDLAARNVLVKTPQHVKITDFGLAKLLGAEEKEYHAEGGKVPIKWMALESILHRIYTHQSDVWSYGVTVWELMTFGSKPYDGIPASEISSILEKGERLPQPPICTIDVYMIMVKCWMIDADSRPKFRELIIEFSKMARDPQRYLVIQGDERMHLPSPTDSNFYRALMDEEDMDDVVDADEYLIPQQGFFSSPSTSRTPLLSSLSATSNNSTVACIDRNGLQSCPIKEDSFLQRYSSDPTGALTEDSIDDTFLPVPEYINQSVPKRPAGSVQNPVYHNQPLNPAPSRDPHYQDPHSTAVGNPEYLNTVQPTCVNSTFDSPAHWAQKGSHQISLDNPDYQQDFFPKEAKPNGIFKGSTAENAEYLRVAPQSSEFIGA

| SMILES | Biochem EGFR % Inhibition (P.167) |
| --- | --- |
| Cc1c(Br)cc(Br)c2c1C(=Cc1ccc(O)cc1)C(=O)N2 [10719/H07] | −2.8% |
| Cc1c(Br)cc(Br)c2c1C(=Cc1ccc(N(C)C)cc1)C(=O)N2 [10719/H08] | 2.9% |
| Cc1c(Br)cc(Br)c2c1C(=Cc1ccc(F)cc1Cl)C(=O)N2 [10719/H09] | −33.5% |
| Cc1c(Br)cc(Br)c2c1C(=Cc1cccc([N+](=O)[O-])c1)C(=O)N2 [10719/H10] | 14.6% |
| Cc1c(Br)cc(Br)c2c1C(=Cc1ccc(F)cc1C(F)(F)F)C(=O)N2 [10719/H11] | −12.0% |
| Cc1c(Br)cc(Br)c2c1C(=Cc1c(F)cc(F)cc1F)C(=O)N2 [10720/H02] | 17.0% |
| COc1cc(O)ccc1C=C1C(=O)Nc2c(Br)cc(Br)c(C)c21 [10720/H03] | −13.9% |
| N#Cc1ccccc1C=C1C(=O)Nc2ccc(CCCl)cc21 [10735/G07] | 4.6% |
| O=C1Nc2ccc(CCCl)cc2C1=Cc1c(F)cccc1F [10735/G08] | 1.6% |
| O=C1Nc2ccc(CCCl)cc2C1=Cc1cccc2ccccc12 [10735/G09] | 19.8% |
| O=C1Nc2ccc(CCCl)cc2C1=Cc1ccc(Cl)cc1Cl [10735/G10] | 4.5% |
| O=C1Nc2ccc(CCCl)cc2C1=Cc1ccc(-c2ccccc2)cc1 [10735/G11] | 2.9% |
| Cc1ccccc1C=C1C(=O)Nc2c(Br)cc(Br)c(C)c21 [10735/H02] | 3.6% |
| Cc1c(Br)cc(Br)c2c1C(=Cc1ccc(F)c(F)c1)C(=O)N2 [10735/H03] | −1.0% |
| Cc1c(Br)cc(Br)c2c1C(=Cc1cc(F)cc(F)c1)C(=O)N2 [10735/H04] | −9.3% |
| Cc1c(Br)cc(Br)c2c1C(=Cc1cccc(C(F)(F)F)c1)C(=O)N2 [10735/H05] | −0.3% |
| Cc1c(Br)cc(Br)c2c1C(=Cc1cc(C(F)(F)F)cc(C(F)(F)F)c1)C(=O)N2 [10735/H06] | −14.2% |
| Cc1c(Br)cc(Br)c2c1C(=Cc1ccccc1C#N)C(=O)N2 [10735/H07] | 3.8% |
| Cc1c(Br)cc(Br)c2c1C(=Cc1c(F)cccc1F)C(=O)N2 [10735/H08] | 6.8% |
| Cc1c(Br)cc(Br)c2c1C(=Cc1cccc3ccccc13)C(=O)N2 [10735/H09] | −10.7% |
| Cc1c(Br)cc(Br)c2c1C(=Cc1ccc(Cl)cc1Cl)C(=O)N2 [10735/H10] | −16.3% |
| Cc1c(Br)cc(Br)c2c1C(=Cc1ccc(-c3ccccc3)cc1)C(=O)N2 [10735/H11] | −4.2% |
| O=C1Nc2c(Br)cc(Br)cc2C1=Cc1ccc(Cl)cc1 [10736/A02] | 7.7% |
| O=C1Nc2c(Br)cc(Br)cc2C1=Cc1ccccc1C(F)(F)F [10736/A03] | 24.2% |
| Cc1cccc(C=C2C(=O)Nc3c(Br)cc(Br)cc32)c1 [10736/A04] | 14.1% |
| Cc1ccc(C=C2C(=O)Nc3c(Br)cc(Br)cc32)cc1 [10736/A05] | 80.1% |
| O=C1Nc2c(Br)cc(Br)cc2C1=Cc1cccc(Cl)c1 [10736/A06] | 34.4% |

| SMILES | Biochem EGFR % Inhibition (P.167) |
| --- | --- |
| O=C1Nc2c(Br)cc(Br)cc2C1=Cc1cccc(F)c1 [10736/A07] | 30.2% |
| O=C1Nc2c(Br)cc(Br)cc2C1=Cc1ccccc1F [10736/A08] | 27.6% |
| CCc1ccc(C=C2C(=O)Nc3c(Br)cc(Br)cc32)cc1 [10736/A09] | 20.0% |
| COc1cccc(C=C2C(=O)Nc3c(Br)cc(Br)cc32)c1 [10736/A10] | −0.1% |
| O=C1Nc2c(Br)cc(Br)cc2C1=Cc1ccccc1Cl [10736/A11] | −29.3% |
| O=C1Nc2ccc(I)cc2C1=Cc1ccc(Cl)cc1 [10736/B02] | −38.8% |
| O=C1Nc2ccc(I)cc2C1=Cc1ccccc1C(F)(F)F [10736/B03] | −51.7% |
| Cc1cccc(C=C2C(=O)Nc3ccc(I)cc32)c1 [10736/B04] | −9.0% |
| Cc1ccc(C=C2C(=O)Nc3ccc(I)cc32)cc1 [10736/B05] | 14.9% |
| O=C1Nc2ccc(I)cc2C1=Cc1cccc(Cl)c1 [10736/B06] | 12.6% |
| O=C1Nc2ccc(I)cc2C1=Cc1cccc(F)c1 [10736/B07] | 8.4% |
| O=C1Nc2ccc(I)cc2C1=Cc1ccccc1F [10736/B08] | 8.4% |
| CCc1ccc(C=C2C(=O)Nc3ccc(I)cc32)cc1 [10736/B09] | −3.5% |
| COc1cccc(C=C2C(=O)Nc3ccc(I)cc32)c1 [10736/B10] | 15.6% |
| O=C1Nc2ccc(I)cc2C1=Cc1ccccc1Cl [10736/B11] | −3.7% |
| Cc1c(Br)ccc2c1C(=Cc1ccc(Cl)cc1)C(=O)N2 [10736/C02] | −47.1% |
| Cc1c(Br)ccc2c1C(=Cc1ccccc1C(F)(F)F)C(=O)N2 [10736/C03] | 0.3% |
| Cc1cccc(C=C2C(=O)Nc3ccc(Br)c(C)c32)c1 [10736/C04] | 90.2% |
| Cc1ccc(C=C2C(=O)Nc3ccc(Br)c(C)c32)cc1 [10736/C05] | 16.8% |
| Cc1c(Br)ccc2c1C(=Cc1cccc(Cl)c1)C(=O)N2 [10736/C06] | 4.8% |
| Cc1c(Br)ccc2c1C(=Cc1cccc(F)c1)C(=O)N2 [10736/C07] | −8.1% |
| Cc1c(Br)ccc2c1C(=Cc1ccccc1F)C(=O)N2 [10736/C08] | −0.5% |
| CCc1ccc(C=C2C(=O)Nc3ccc(Br)c(C)c32)cc1 [10736/C09] | 4.6% |
| COc1cccc(C=C2C(=O)Nc3ccc(Br)c(C)c32)c1 [10736/C10] | −0.3% |
| Cc1c(Br)ccc2c1C(=Cc1ccccc1Cl)C(=O)N2 [10736/C11] | −4.5% |
| CNS(=O)(=O)c1ccc2c(c1)C(=Cc1ccc(Cl)cc1)C(=O)N2 [10736/D02] | 1.8% |
| CNS(=O)(=O)c1ccc2c(c1)C(=Cc1ccccc1C(F)(F)F)C(=O)N2 [10736/D03] | −3.7% |

| SMILES | Biochem EGFR % Inhibition (P.167) |
| --- | --- |
| CNS(=O)(=O)c1ccc2c(c1)C(=Cc1cccc(C)c1)C(=O)N2 [10736/D04] | 24.9% |
| CNS(=O)(=O)c1ccc2c(c1)C(=Cc1ccc(C)cc1)C(=O)N2 [10736/D05] | −7.9% |
| CNS(=O)(=O)c1ccc2c(c1)C(=Cc1cccc(Cl)c1)C(=O)N2 [10736/D06] | 29.7% |
| CNS(=O)(=O)c1ccc2c(c1)C(=Cc1cccc(F)c1)C(=O)N2 [10736/D07] | 47.1% |
| CNS(=O)(=O)c1ccc2c(c1)C(=Cc1ccccc1F)C(=O)N2 [10736/D08] | 90.9% |
| CCc1ccc(C=C2C(=O)Nc3ccc(S(=O)(=O)NC)cc32)cc1 [10736/D09] | 66.8% |
| CNS(=O)(=O)c1ccc2c(c1)C(=Cc1cccc(OC)c1)C(=O)N2 [10736/D10] | 10.5% |
| CNS(=O)(=O)c1ccc2c(c1)C(=Cc1ccccc1Cl)C(=O)N2 [10736/D11] | 51.7% |
| O=C1Nc2ccc(S(=O)(=O)Nc3ccc(C(F)(F)F)cc3)cc2C1=Cc1ccc(Cl)cc1 [10736/E02] | 2.0% |
| O=C1Nc2ccc(S(=O)(=O)Nc3ccc(C(F)(F)F)cc3)cc2C1=Cc1ccccc1C(F)(F)F [10736/E03] | 90.2% |
| Cc1cccc(C=C2C(=O)Nc3ccc(S(=O)(=O)Nc4ccc(C(F)(F)F)cc4)cc32)c1 [10736/E04] | −17.2% |
| Cc1ccc(C=C2C(=O)Nc3ccc(S(=O)(=O)Nc4ccc(C(F)(F)F)cc4)cc32)cc1 [10736/E05] | 17.0% |
| O=C1Nc2ccc(S(=O)(=O)Nc3ccc(C(F)(F)F)cc3)cc2C1=Cc1cccc(Cl)c1 [10736/E06] | 47.3% |
| O=C1Nc2ccc(S(=O)(=O)Nc3ccc(C(F)(F)F)cc3)cc2C1=Cc1cccc(F)c1 [10736/E07] | −26.7% |
| O=C1Nc2ccc(S(=O)(=O)Nc3ccc(C(F)(F)F)cc3)cc2C1=Cc1ccccc1F [10736/E08] | −47.3% |
| CCc1ccc(C=C2C(=O)Nc3ccc(S(=O)(=O)Nc4ccc(C(F)(F)F)cc4)cc32)cc1 [10736/E09] | −40.1% |
| COc1cccc(C=C2C(=O)Nc3ccc(S(=O)(=O)Nc4ccc(C(F)(F)F)cc4)cc32)c1 [10736/E10] | −24.0% |
| O=C1Nc2ccc(S(=O)(=O)Nc3ccc(C(F)(F)F)cc3)cc2C1=Cc1ccccc1Cl [10736/E11] | −74.1% |
| O=C1Nc2ccc(S(=O)(=O)N3CCOCC3)cc2C1=Cc1ccc(Cl)cc1 [10736/F02] | −4.5% |
| O=C1Nc2ccc(S(=O)(=O)N3CCOCC3)cc2C1=Cc1ccccc1C(F)(F)F [10736/F03] | 94.0% |
| Cc1cccc(C=C2C(=O)Nc3ccc(S(=O)(=O)N4CCOCC4)cc32)c1 [10736/F04] | −21.7% |
| Cc1ccc(C=C2C(=O)Nc3ccc(S(=O)(=O)N4CCOCC4)cc32)cc1 [10736/F05] | −6.0% |
| O=C1Nc2ccc(S(=O)(=O)N3CCOCC3)cc2C1=Cc1cccc(Cl)c1 [10736/F06] | 25.1% |
| O=C1Nc2ccc(S(=O)(=O)N3CCOCC3)cc2C1=Cc1cccc(F)c1 [10736/F07] | −12.1% |
| O=C1Nc2ccc(S(=O)(=O)N3CCOCC3)cc2C1=Cc1ccccc1F [10736/F08] | −2.8% |
| CCc1ccc(C=C2C(=O)Nc3ccc(S(=O)(=O)N4CCOCC4)cc32)cc1 [10736/F09] | 6.3% |
